{"source": "patent US6794396B2", "about": "“Substituted pyridines useful for inhibiting cholesteryl ester transfer protein activity” (Pharmacia Corporation, priority 1998, dated 2004)", "key": {"[1]": {"target": "T1, CETP in human plasma or serum pool (Homo sapiens, UniProt P11597)", "T1 construct": "from tissue; host or cells: pooled human EDTA plasma or serum from healthy volunteers", "T1 sequence (P11597 18-493)": "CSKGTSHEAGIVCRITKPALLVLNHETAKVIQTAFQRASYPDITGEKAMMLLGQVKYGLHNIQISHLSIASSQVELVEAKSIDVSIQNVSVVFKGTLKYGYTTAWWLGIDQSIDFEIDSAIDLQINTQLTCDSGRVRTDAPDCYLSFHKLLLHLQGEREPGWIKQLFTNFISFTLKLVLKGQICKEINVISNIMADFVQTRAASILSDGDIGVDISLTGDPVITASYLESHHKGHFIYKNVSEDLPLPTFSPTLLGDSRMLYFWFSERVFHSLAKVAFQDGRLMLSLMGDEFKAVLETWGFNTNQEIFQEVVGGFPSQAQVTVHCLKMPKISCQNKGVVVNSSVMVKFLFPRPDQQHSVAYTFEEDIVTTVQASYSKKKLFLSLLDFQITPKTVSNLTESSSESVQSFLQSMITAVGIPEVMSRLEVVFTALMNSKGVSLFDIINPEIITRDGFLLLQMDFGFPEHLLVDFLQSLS", "assay": "Whole serum CETP activity assay (tritiated cholesterol ester)", "assay_type": "biochemical", "conditions": "4 hours at 37° C.", "procedure": "Blood was obtained from healthy volunteers recruited from the personnel of Monsanto Company, Saint Louis, Mo. Blood was either collected in tubes containing EDTA (EDTA plasma pool) or in tubes without EDTA (spun to form the serum pool). The EDTA human plasma pool or human serum pool, previously stored at −20° C., was thawed at room temperature, and centrifuged for 5 minutes to remove any particulate matter. Tritiated HDL, radiolabeled in the cholesteryl ester moiety ([^3H]CE-HDL) as described by Morton and Zilversmit (J. Biol. Chem., 256, 11992-95 (1981) which is incorporated by reference herein), was added to the plasma or serum to a final concentration of (25 μg/ml cholesterol).\nInhibitor compounds were added to the plasma or serum as follows: Equal volumes of the plasma or serum containing the [^3H]CE-HDL (396 μl) were pipetted into micro tubes (Titertube®, Bio-Rad Laboratories, Hercules, Calif.). Compounds, usually dissolved as 20-50 mM stock solutions in DMSO, were serially diluted in DMSO (or an alternative solvent in some cases, such as dimethylformamide or ethanol). Four μl of each of the serial dilutions of inhibitor compounds or DMSO alone were then added to each of the plasma or serum tubes. The tubes were immediately mixed. Triplicate aliquots (100 μl) from each plasma or serum tube were then transferred to wells of 96-well round-bottomed polystyrene microtiter plates (Corning, Corning, N.Y.). Plates were sealed with plastic film and incubated at 37° C. for 4 hours.\nTest wells contained plasma or serum with dilutions of inhibitor compounds. Control wells contained plasma or serum with DMSO alone. Blank wells contained plasma or serum with DMSO alone that were left in the micro tubes at 4° C. for the 4 hour incubation and were added to the microtiter wells at the end of the incubation period. VLDL and LDL were precipitated by the addition of 10 μl of precipitating reagent (1% (w/v) Dextran Sulfate (Dextralip50)/0.5M magnesium chloride, pH 7.4) to all wells. The wells were mixed on a plate mixer and then incubated at ambient temperature for 10 min. The plates were then centrifuged at 1000×g for 30 mins at 10° C. The supernatants (50 μl) from each well were then transferred to Picoplate™ 96 plate wells (Packard, Meriden, Conn.) containing […] Microscint™-40 (Packard, Meriden, Conn.). The plates were heat-sealed (TopSeal™-P, Packard, Meriden, Conn.) according to the manufacturers directions and mixed for 30 min.\nRadioactivity was measured on a microplate scintillation counter (TopCount, Packard, Meriden, Conn.). […] The maximum percent transfer (in the control wells) was determined using the following equation: [formula]\nThe percent of control transfer determined in the wells containing inhibitor compounds was determined as follows: [formula]\nIC50 values were then calculated from plots of % control versus concentration of inhibitor compound."}, "CETP": {"tested_on": "CETP", "assay": "Chronic inhibition of CETP activity in vivo: Alzet pump infusion, serum LDL/HDL cholesterol profiles by FPLC", "design": "species or system golden Syrian hamster", "excerpt": "Chronic inhibition of CETP can be achieved by administration of Dimethyl 5,5′-dithiobis[2-difluoromethyl)-4-(2-methylpropyl)-6-(trifluoromethyl)-3-pyridinecarboxylate] (Compound 181) to hamsters using Alzet pump delivery of Compound 181 into the jugular veins of hamsters. Inhibition of CETP should lead to an increase in HDL cholesterol with a concomitant decrease in LDL cholesterol. This can be determined by filtering serum obtained at different time intervals after initiation of inhibitor infusion and quantitating the amount of cholesterol in the LDL and HDL peaks, respectively. In addition the activity of CETP in the serum can be assessed in an ex vivo CETP activity assay.\nMale golden Syrian hamsters were maintained on a diet of normal rodent chow enriched with 0.24% cholesterol for at least 2 weeks prior to study. On Day 1, the hamsters were anesthetized with pentobarbital. An indwelling catheter was inserted into the jugular vein and exteriorized onto the back of the neck. The hamsters received […] of Compound 181 (38.5 mg/kg) in a 2% ethanol:98% PEG400 vehicle, or the 2% ethanol:98% PEG400 vehicle alone. An Alzet pump was then attached to the jugular catheter which delivered a steady infusion of 24 μl/day for a dose of 1.3 mg/day(9.2 mg/kg/day). The hamsters received the vehicle (2% ETOH:98% PEG400) or Compound 181 for 8 days. The hamsters were maintained for 12 days. Blood samples were taken on day 1 (pre-bleed) at the time of surgery, and on days 5, 7, 8 and 12. Fast Protein Liquid Chromatography (FPLC) on tandem Superose 6 columns of pooled hamster serum was performed to obtain cholesterol profiles for the two experimental groups.\nSerum cholesterol profiles were determined on pooled sera from each group. Total serum cholesterol and CETP activity were determined on individual serum samples. In hamsters administered Compound 181 chronically, there was a 30% reduction and 26% increase in LDL cholesterol and HDL cholesterol concentrations, respectively, compared to the vehicle group at Day 5. The decrease in LDL and increase in HDL persisted until Day 8 when the Alzet pump was exhausted. […] Therefore, it would appear that for every percent reduction in CETP activity determined by the ex vivo assay, there was a 2-3% decrease in LDL cholesterol or increase in HDL cholesterol concentrations."}, "[2]": {"conditions": "Day 1 (pre-bleed), pooled serum"}, "[3]": {"conditions": "Day 12, after pump exhausted at Day 8, pooled serum"}}}
{"smiles": "COC(=O)c1c(C(F)F)nc(C(F)(F)F)c(SSc2c(C(F)(F)F)nc(C(F)F)c(C(=O)OC)c2CC(C)C)c1CC(C)C", "note": "[Compound 181, Dimethyl 5,5′-Dithiobis[2-(difluoromethyl)-4-(2-methylpropyl)-6-(trifluoromethyl)-3-pyridinecarboxylate]]", "values": [{"measurement": "IC50 whole serum CETP activity", "setting": "[1]", "value": 16, "unit": "µM"}, {"measurement": "HDL cholesterol concentration, % of cholesterol concentration in vehicle group", "setting": "CETP; [2]", "value": 105, "unit": "%"}, {"measurement": "LDL cholesterol concentration, % of cholesterol concentration in vehicle group", "setting": "CETP; [2]", "value": 111, "unit": "%"}, {"measurement": "increase in HDL cholesterol concentration compared to the vehicle group", "setting": "CETP; Day 5", "value": 26, "unit": "%"}, {"measurement": "reduction in LDL cholesterol concentration compared to the vehicle group", "setting": "CETP; Day 5", "value": 30, "unit": "%"}, {"measurement": "HDL cholesterol concentration, % of cholesterol concentration in vehicle group", "setting": "CETP; [3]", "value": 114, "unit": "%"}, {"measurement": "LDL cholesterol concentration, % of cholesterol concentration in vehicle group", "setting": "CETP; [3]", "value": 90, "unit": "%"}]}
